{
  "source": "paper PMC6345968",
  "about": "“Structural basis for species-selective targeting of Hsp90 in a pathogenic fungus” (Nature Communications, 2019)",
  "key": {"[1]": {"molecular_target": "T1, Hsp90 in C. albicans (SC5314) lysate (Candida albicans, UniProt P46598)", "T1 construct": "endogenous in cells; host or cells: C. albicans SC5314 whole-cell lysate", "T1 sequence (P46598 whole entry)": "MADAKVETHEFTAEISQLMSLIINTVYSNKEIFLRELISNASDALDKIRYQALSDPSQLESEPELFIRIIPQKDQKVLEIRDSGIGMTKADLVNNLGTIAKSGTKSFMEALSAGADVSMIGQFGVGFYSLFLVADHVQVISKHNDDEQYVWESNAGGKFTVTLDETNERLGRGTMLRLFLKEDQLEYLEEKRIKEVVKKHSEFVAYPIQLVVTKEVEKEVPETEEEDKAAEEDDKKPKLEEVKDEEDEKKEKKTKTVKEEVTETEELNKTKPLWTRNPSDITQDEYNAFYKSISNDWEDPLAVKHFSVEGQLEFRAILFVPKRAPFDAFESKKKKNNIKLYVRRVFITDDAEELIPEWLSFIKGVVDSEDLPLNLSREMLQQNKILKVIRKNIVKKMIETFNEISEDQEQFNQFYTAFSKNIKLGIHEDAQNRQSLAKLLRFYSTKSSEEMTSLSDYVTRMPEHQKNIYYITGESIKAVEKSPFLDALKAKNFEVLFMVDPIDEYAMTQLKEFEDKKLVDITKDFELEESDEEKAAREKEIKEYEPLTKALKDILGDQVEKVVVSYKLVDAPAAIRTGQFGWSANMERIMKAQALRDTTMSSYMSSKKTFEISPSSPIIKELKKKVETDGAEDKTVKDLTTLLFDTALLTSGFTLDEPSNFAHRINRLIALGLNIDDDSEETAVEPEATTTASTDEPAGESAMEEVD", "assay": "biochemical", "type": "binding", "settings": "for FP signal: raw"}, "Hsp90 in HEPG2 lysate": {"system": "Hsp90 in HEPG2 lysate", "settings": "for FP signal: raw"}, "[2]": {"settings": "SC5314 lysate, 0.457 nM compound"}, "[3]": {"settings": "SC5314 lysate, 1.372 nM compound"}, "[4]": {"settings": "SC5314 lysate, 4.115 nM compound"}, "[5]": {"settings": "SC5314 lysate, 12.346 nM compound"}, "[6]": {"settings": "SC5314 lysate, 37.037 nM compound"}, "[7]": {"settings": "SC5314 lysate, 111.111 nM compound"}, "[8]": {"settings": "SC5314 lysate, 333.333 nM compound"}, "[9]": {"settings": "SC5314 lysate, 1000 nM compound"}, "[10]": {"settings": "SC5314 lysate, 3000 nM compound"}},
  "note": "pEC50: −log10 of the molar value. Like-named read-outs stand apart in the source and are kept apart here.",
  "data": [
    {"smiles": "CC1CC2OC2C=CC=CC(=NOCCN2CCCC2=O)Cc2c(Cl)c(O)cc(O)c2C(=O)O1", "note": "(stereo not shown) [KF58333, reference compound]", "values": [
      {"measurement": "pEC50", "setting": "[1]; EC50, SC5314 lysate, not normalized, oxime panel experiment 220817", "result": 8.16},
      {"measurement": "Ratio re. GdA", "setting": "[1]; EC50 relative to GdA, SC5314 lysate", "result": 0.4034},
      {"measurement": "FP signal (raw)", "setting": "[1]; SC5314 lysate, 0.457 nM", "result": 203},
      {"measurement": "FP signal relative to 0 nM", "setting": "[1]; [2]", "result": 0.9807},
      {"measurement": "FP signal", "setting": "[1]; [2]", "result": 203},
      {"measurement": "FP signal (raw)", "setting": "[1]; SC5314 lysate, 1.372 nM", "result": 193},
      {"measurement": "FP signal relative to 0 nM", "setting": "[1]; [3]", "result": 0.9324},
      {"measurement": "FP signal", "setting": "[1]; [3]", "result": 193},
      {"measurement": "FP signal (raw)", "setting": "[1]; SC5314 lysate, 4.115 nM", "result": 162},
      {"measurement": "FP signal relative to 0 nM", "setting": "[1]; [4]", "result": 0.7826},
      {"measurement": "FP signal", "setting": "[1]; [4]", "result": 162},
      {"measurement": "FP signal (raw)", "setting": "[1]; SC5314 lysate, 12.346 nM", "result": 71},
      {"measurement": "FP signal relative to 0 nM", "setting": "[1]; [5]", "result": 0.343},
      {"measurement": "FP signal", "setting": "[1]; [5]", "result": 71},
      {"measurement": "FP signal (raw)", "setting": "[1]; SC5314 lysate, 37.037 nM", "result": 44},
      {"measurement": "FP signal relative to 0 nM", "setting": "[1]; [6]", "result": 0.2126},
      {"measurement": "FP signal", "setting": "[1]; [6]", "result": 44},
      {"measurement": "FP signal (raw)", "setting": "[1]; SC5314 lysate, 111.111 nM", "result": 38},
      {"measurement": "FP signal relative to 0 nM", "setting": "[1]; [7]", "result": 0.1836},
      {"measurement": "FP signal", "setting": "[1]; [7]", "result": 38},
      {"measurement": "FP signal (raw)", "setting": "[1]; SC5314 lysate, 333.333 nM", "result": 35},
      {"measurement": "FP signal relative to 0 nM", "setting": "[1]; [8]", "result": 0.1691},
      {"measurement": "FP signal", "setting": "[1]; [8]", "result": 35},
      {"measurement": "FP signal (raw)", "setting": "[1]; SC5314 lysate, 1000 nM", "result": 37},
      {"measurement": "FP signal relative to 0 nM", "setting": "[1]; [9]", "result": 0.1787},
      {"measurement": "FP signal", "setting": "[1]; [9]", "result": 37},
      {"measurement": "FP signal (raw)", "setting": "[1]; SC5314 lysate, 3000 nM", "result": 36},
      {"measurement": "FP signal relative to 0 nM", "setting": "[1]; [10]", "result": 0.1739},
      {"measurement": "FP signal", "setting": "[1]; [10]", "result": 36},
      {"measurement": "HepG2/SC5314", "setting": "[1]; ratio of GdA-normalized EC50s, human over fungal lysate", "result": 1.165},
      {"measurement": "HepG2/SC5314", "setting": "[1]; ratio of GdA-relative EC50 ratios, HepG2 over SC5314", "result": 1.165},
      {"measurement": "Ratio rel. GdA (HepG2)", "setting": "Hsp90 in HEPG2 lysate; EC50 / EC50 of GdA in HepG2 lysate", "result": 0.4698},
      {"measurement": "Ratio rel. GdA (HepG2)", "setting": "Hsp90 in HEPG2 lysate; EC50 relative to GdA, HEPG2 lysate", "result": 0.4698},
      {"measurement": "FP signal, Fxn Control", "setting": "Hsp90 in HEPG2 lysate; HEPG2 lysate, log concentration 0.137354 (1.372 nM)", "result": 0.9604},
      {"measurement": "FP signal, Fxn Control", "setting": "Hsp90 in HEPG2 lysate; HEPG2 lysate, log concentration 0.61437 (4.115 nM)", "result": 0.9307},
      {"measurement": "FP signal, Fxn Control", "setting": "Hsp90 in HEPG2 lysate; HEPG2 lysate, log concentration 1.09153 (12.346 nM)", "result": 0.5149},
      {"measurement": "FP signal, Fxn Control", "setting": "Hsp90 in HEPG2 lysate; HEPG2 lysate, log concentration 1.56864 (37.037 nM)", "result": 0.302},
      {"measurement": "FP signal, Fxn Control", "setting": "Hsp90 in HEPG2 lysate; HEPG2 lysate, log concentration 2.04576 (111.111 nM)", "result": 0.2277},
      {"measurement": "FP signal, Fxn Control", "setting": "Hsp90 in HEPG2 lysate; HEPG2 lysate, log concentration 2.52288 (333.333 nM)", "result": 0.2129},
      {"measurement": "FP signal, Fxn Control", "setting": "Hsp90 in HEPG2 lysate; HEPG2 lysate, log concentration 3 (1000 nM)", "result": 0.2277},
      {"measurement": "FP signal, Fxn Control", "setting": "Hsp90 in HEPG2 lysate; HEPG2 lysate, log concentration 3.47712 (3000 nM)", "result": 0.2475},
      {"measurement": "FP signal, Fxn Control", "setting": "Hsp90 in HEPG2 lysate; HEPG2 lysate, log concentration -0.340084 (0.457 nM)", "result": 0.9703},
      {"measurement": "FP signal (raw)", "setting": "Hsp90 in HEPG2 lysate; HepG2 lysate, 0.457 nM", "result": 196},
      {"measurement": "FP signal", "setting": "Hsp90 in HEPG2 lysate; HepG2 lysate, 0.457 nM compound", "result": 196},
      {"measurement": "FP signal (raw)", "setting": "Hsp90 in HEPG2 lysate; HepG2 lysate, 1.372 nM", "result": 194},
      {"measurement": "FP signal", "setting": "Hsp90 in HEPG2 lysate; HepG2 lysate, 1.372 nM compound", "result": 194},
      {"measurement": "FP signal (raw)", "setting": "Hsp90 in HEPG2 lysate; HepG2 lysate, 4.115 nM", "result": 188},
      {"measurement": "FP signal", "setting": "Hsp90 in HEPG2 lysate; HepG2 lysate, 4.115 nM compound", "result": 188},
      {"measurement": "FP signal (raw)", "setting": "Hsp90 in HEPG2 lysate; HepG2 lysate, 12.346 nM", "result": 104},
      {"measurement": "FP signal", "setting": "Hsp90 in HEPG2 lysate; HepG2 lysate, 12.346 nM compound", "result": 104},
      {"measurement": "FP signal (raw)", "setting": "Hsp90 in HEPG2 lysate; HepG2 lysate, 37.037 nM", "result": 61},
      {"measurement": "FP signal", "setting": "Hsp90 in HEPG2 lysate; HepG2 lysate, 37.037 nM compound", "result": 61},
      {"measurement": "FP signal (raw)", "setting": "Hsp90 in HEPG2 lysate; HepG2 lysate, 111.111 nM", "result": 46},
      {"measurement": "FP signal", "setting": "Hsp90 in HEPG2 lysate; HepG2 lysate, 111.111 nM compound", "result": 46},
      {"measurement": "FP signal (raw)", "setting": "Hsp90 in HEPG2 lysate; HepG2 lysate, 333.333 nM", "result": 43},
      {"measurement": "FP signal", "setting": "Hsp90 in HEPG2 lysate; HepG2 lysate, 333.333 nM compound", "result": 43},
      {"measurement": "FP signal (raw)", "setting": "Hsp90 in HEPG2 lysate; HepG2 lysate, 1000 nM", "result": 46},
      {"measurement": "FP signal", "setting": "Hsp90 in HEPG2 lysate; HepG2 lysate, 1000 nM compound", "result": 46},
      {"measurement": "FP signal (raw)", "setting": "Hsp90 in HEPG2 lysate; HepG2 lysate, 3000 nM", "result": 50},
      {"measurement": "FP signal", "setting": "Hsp90 in HEPG2 lysate; HepG2 lysate, 3000 nM compound", "result": 50},
      {"measurement": "pEC50", "setting": "Hsp90 in HEPG2 lysate; HepG2 lysate, oxime panel experiment 220817", "result": 7.98}
    ]}
  ]
}
